The source of these data is US8614201B2 (Janssen Pharmaceutica NV, priority 2009, dated 2013).

This experiment addresses Human TRPA1 (Homo sapiens, UniProt O75762). Nature of the experiment: Assay 1: In vitro cellular testing of TRPA1 modulation (CHO-TREx, Fluo-3 calcium fluorescence, AITC agonist). It is filed as cell-based. Set-up: expressed in transfected cells; host or cells: CHO-TREx cells (Invitrogen), vector pcDNA4/TO. The conditions noted are these: CHO-TREx cells expressing human TRPA1; Fluo-3 fluorescence (FLIPR/Tetra); agonist 15 μM allyl isothiocyanate (AITC); 30 minute antagonist incubation. The method, boiled down:
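Tetracycline-induced CHO-TREx cells stably expressing human TRPA1, loaded with 4 μM Fluo-3 AM, preincubated 30 min with compound (serial dilution typically from 10 μM, three-fold steps) in HEPES saline pH 7.4. Fluorescence change over 3 min after 15 μM AITC; IC50 from Hill fit versus no-antagonist and 10 μM ruthenium red controls.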

A word on the IC50: it is the midpoint of a concentration-inhibition curve.

Chain of Human TRPA1 (O75762 whole entry): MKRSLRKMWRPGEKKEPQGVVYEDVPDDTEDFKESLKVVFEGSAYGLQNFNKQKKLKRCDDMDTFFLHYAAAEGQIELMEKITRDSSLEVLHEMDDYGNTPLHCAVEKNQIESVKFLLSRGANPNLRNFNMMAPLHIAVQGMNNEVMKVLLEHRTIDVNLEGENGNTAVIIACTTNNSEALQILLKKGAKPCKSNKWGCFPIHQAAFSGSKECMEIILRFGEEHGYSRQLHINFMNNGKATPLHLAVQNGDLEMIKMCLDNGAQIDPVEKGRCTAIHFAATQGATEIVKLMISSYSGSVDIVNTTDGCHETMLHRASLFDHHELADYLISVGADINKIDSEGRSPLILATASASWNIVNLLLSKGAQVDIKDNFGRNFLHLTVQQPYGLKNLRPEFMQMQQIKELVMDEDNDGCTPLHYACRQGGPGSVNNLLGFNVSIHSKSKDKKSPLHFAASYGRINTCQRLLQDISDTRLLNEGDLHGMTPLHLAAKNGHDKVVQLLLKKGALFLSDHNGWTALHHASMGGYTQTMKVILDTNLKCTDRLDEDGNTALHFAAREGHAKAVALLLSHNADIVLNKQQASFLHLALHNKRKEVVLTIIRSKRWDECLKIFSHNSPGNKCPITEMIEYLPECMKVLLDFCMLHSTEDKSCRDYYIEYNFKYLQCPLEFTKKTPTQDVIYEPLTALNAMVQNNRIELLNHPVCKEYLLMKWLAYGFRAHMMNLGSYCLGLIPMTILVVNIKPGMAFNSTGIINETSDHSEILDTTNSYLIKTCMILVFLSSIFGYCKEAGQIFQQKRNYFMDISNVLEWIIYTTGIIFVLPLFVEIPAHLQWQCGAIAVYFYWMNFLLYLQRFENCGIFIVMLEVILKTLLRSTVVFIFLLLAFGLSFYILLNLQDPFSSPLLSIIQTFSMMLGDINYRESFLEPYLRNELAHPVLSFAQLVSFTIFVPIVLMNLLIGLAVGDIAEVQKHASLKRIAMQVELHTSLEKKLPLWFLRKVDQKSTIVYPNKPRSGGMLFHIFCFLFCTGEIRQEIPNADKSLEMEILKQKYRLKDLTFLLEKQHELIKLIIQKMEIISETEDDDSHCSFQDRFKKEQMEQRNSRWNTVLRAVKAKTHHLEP

With `O=C(NCc1cccc(-c2ccc(C(F)(F)F)cc2)c1)[C@@H]1CC(F)(F)CN1S(=O)(=O)c1ccc(Cl)s1` [Example 120, (2S)-1-(5-Chloro-thiophene-2-sulfonyl)-4,4-difluoro-pyrrolidine-2-carboxylic acid (4′-trifluoromethyl-biphenyl-3-ylmethyl)-amide], the IC50 turned out to be 30 nM.

For the molecule `O=C(NCc1cccc(-c2ccc(C(F)(F)F)cc2)c1)[C@@H]1C[C@H](O)CN1S(=O)(=O)c1ccc(F)cc1` [Example 121, (2S,4S)-1-(4-Fluoro-benzenesulfonyl)-4-hydroxy-pyrrolidine-2-carboxylic acid (4′-trifluoromethyl-biphenyl-3-ylmethyl)-amide], the IC50 turned out to be 1530 nM.

For the molecule `O=C(NCc1cccc(-c2ccc(C(F)(F)F)cc2)c1)[C@@H]1C[C@@H](O)CN1S(=O)(=O)c1ccc(F)cc1` [Example 122, (2S,4R)-1-(4-Fluoro-benzenesulfonyl)-4-hydroxy-pyrrolidine-2-carboxylic acid (4′-trifluoromethyl-biphenyl-3-ylmethyl)-amide], the IC50 came out at 267 nM.

As to `O=C(NCc1ccnc(-c2ccc(C(F)(F)F)cc2)c1)[C@@H]1CCCN1S(=O)(=O)c1ccc(F)cc1` [Example 123, 1-(4-Fluoro-benzenesulfonyl)-pyrrolidine-2S-carboxylic acid [2-(4-trifluoromethyl-phenyl)-pyridin-4-ylmethyl]-amide], the IC50 amounted to 32 nM.

As to `O=C(NCc1ccnc(-c2ccc(C(F)(F)F)cc2)c1)[C@@H]1CCCN1S(=O)(=O)c1ccc(Cl)s1` [Example 124, 1-(5-Chlorothiophene-2-sulfonyl)pyrrolidine-2S-carboxylic acid [2-(4-trifluoromethylphenyl)-pyridin-4-ylmethyl]-amide], the IC50 was 11 nM.

On to `O=C(NCc1ccnc(-c2ccc(C(F)(F)F)cc2)c1)[C@@H]1CC(F)(F)CN1S(=O)(=O)c1ccc(F)cc1` [Example 125, 4,4-Difluoro-1-(4-fluorobenzenesulfonyl)-pyrrolidine-2S-carboxylic acid [2-(4-trifluoromethylphenyl)-pyridin-4-ylmethyl]-amide], for which the IC50 was 63 nM.

For `O=C(NCc1ccnc(-c2ccc(C(F)(F)F)cc2)c1)[C@@H]1CC(F)(F)CN1S(=O)(=O)c1ccc(Cl)s1` [Example 126, 1-(5-Chlorothiophene-2-sulfonyl)-4,4-difluoropyrrolidine-2S-carboxylic acid [2-(4-trifluoromethylphenyl)-pyridin-4-ylmethyl]-amide], the IC50 is 46 nM.

`O=C(NCc1ccnc(-c2ccc(C(F)(F)F)cc2)c1)[C@@H]1C=CCN1S(=O)(=O)c1ccc(F)cc1` [Example 127, 1-(4-Fluorobenzenesulfonyl)-2,5-dihydro-1H-pyrrole-2S-carboxylic acid [2-(4-trifluoromethylphenyl)-pyridin-4-ylmethyl]-amide]: the IC50 was determined as 42 nM.

Consider `O=C(NCc1ccnc(-c2ccc(C(F)(F)F)cc2)c1)[C@@H]1C=CCN1S(=O)(=O)c1ccc(Cl)s1` [Example 128, 1-(5-Chlorothiophene-2-sulfonyl)-2,5-dihydro-1H-pyrrole-2S-carboxylic acid [2-(4-trifluoromethylphenyl)-pyridin-4-ylmethyl]-amide], for which the IC50 turned out to be 49 nM.

Consider `O=C(NCc1ccnc(-c2ccc(OC(F)(F)F)cc2)c1)[C@@H]1CCCN1S(=O)(=O)c1ccc(F)cc1` [Example 129, 1-(4-Fluoro-benzenesulfonyl)-pyrrolidine-2S-carboxylic acid [2-(4-trifluoromethoxy-phenyl)-pyridin-4-ylmethyl]-amide], for which the IC50 came to 19 nM.

Take `O=C(NCc1ccnc(-c2ccc(OC(F)(F)F)cc2)c1)[C@@H]1CCCN1S(=O)(=O)c1ccc(Cl)s1` [Example 130, 1-(5-Chloro-thiophene-2-sulfonyl)-pyrrolidine-2S-carboxylic acid [2-(4-trifluoromethoxy-phenyl)-pyridin-4-ylmethyl]-amide]: the IC50 was determined as 6 nM.

As to `O=C(NCc1ccnc(-c2ccc(OC(F)(F)F)cc2)c1)[C@@H]1CC(F)(F)CN1S(=O)(=O)c1ccc(F)cc1` [Example 131, 4,4-Difluoro-1-(4-fluoro-benzenesulfonyl)-pyrrolidine-2S-carboxylic acid [2-(4-trifluoromethoxy-phenyl)-pyridin-4-ylmethyl]-amide], the IC50 is 87 nM.

Regarding `O=C(NCc1ccnc(-c2ccc(OC(F)(F)F)cc2)c1)[C@@H]1CC(F)(F)CN1S(=O)(=O)c1ccc(Cl)s1` [Example 132, 1-(5-Chloro-thiophene-2-sulfonyl)-4,4-difluoro-pyrrolidine-2S-carboxylic acid [2-(4-trifluoromethoxy-phenyl)-pyridin-4-ylmethyl]-amide], the IC50 was determined as 117 nM.

For the molecule `O=C(NCc1ccnc(-c2ccc(OC(F)(F)F)cc2)c1)[C@@H]1C=CCN1S(=O)(=O)c1ccc(F)cc1` [Example 133, 1-(4-Fluoro-benzenesulfonyl)-2,5-dihydro-1H-pyrrole-2S-carboxylic acid [2-(4-trifluoromethoxy-phenyl)-pyridin-4-ylmethyl]-amide], the IC50 was found to be 26 nM.

Consider `O=C(NCc1ccnc(-c2ccc(OC(F)(F)F)cc2)c1)[C@@H]1C=CCN1S(=O)(=O)c1ccc(Cl)s1` [Example 134, 1-(5-Chloro-thiophene-2-sulfonyl)-2,5-dihydro-1H-pyrrole-2S-carboxylic acid [2-(4-trifluoromethoxy-phenyl)-pyridin-4-ylmethyl]-amide], for which the IC50 was determined as 21 nM.

As for `O=C(NCc1cc(-c2ccc(C(F)(F)F)cc2)ccn1)[C@@H]1CCCN1S(=O)(=O)c1ccc(F)cc1` [Example 135, 1-(4-Fluoro-benzenesulfonyl)-pyrrolidine-2S-carboxylic acid [4-(4-trifluoromethyl-phenyl)-pyridin-2-ylmethyl]-amide], the IC50 was 22 nM.

For `O=C(NCc1cc(-c2ccc(C(F)(F)F)cc2)ccn1)[C@@H]1CCCN1S(=O)(=O)c1ccc(Cl)s1` [Example 136, 1-(5-Chloro-thiophene-2-sulfonyl)-pyrrolidine-2S-carboxylic acid [4-(4-trifluoromethyl-phenyl)-pyridin-2-ylmethyl]-amide], the IC50 was determined as 35 nM.

In the case of `O=C(NCc1cc(-c2ccc(OC(F)(F)F)cc2)ccn1)[C@@H]1CCCN1S(=O)(=O)c1ccc(F)cc1` [Example 137, 1-(4-Fluoro-benzenesulfonyl)-pyrrolidine-2S-carboxylic acid [4-(4-trifluoromethoxy-phenyl)-pyridin-2-ylmethyl]-amide], the IC50 turned out to be 37 nM.

`O=C(NCc1cc(-c2ccc(OC(F)(F)F)cc2)ccn1)[C@@H]1CCCN1S(=O)(=O)c1ccc(Cl)s1` [Example 138, 1-(5-Chloro-thiophene-2-sulfonyl)-pyrrolidine-2S-carboxylic acid [4-(4-trifluoromethoxy-phenyl)-pyridin-2-ylmethyl]-amide]: the IC50 is 17 nM.

Consider `O=C(NCc1cc(-c2ccc(C(F)(F)F)cc2)ccn1)[C@@H]1CC(F)(F)CN1S(=O)(=O)c1ccc(F)cc1` [Example 139, 4,4-Difluoro-1-(4-fluoro-benzenesulfonyl)-pyrrolidine-2S-carboxylic acid [4-(4-trifluoromethyl-phenyl)-pyridin-2-ylmethyl]-amide], for which the IC50 stood at 73 nM.

With `O=C(NCc1cc(-c2ccc(C(F)(F)F)cc2)ccn1)[C@@H]1CC(F)(F)CN1S(=O)(=O)c1ccc(Cl)s1` [Example 140, 1-(5-Chloro-thiophene-2-sulfonyl)-4,4-difluoro-pyrrolidine-2S-carboxylic acid [4-(4-trifluoromethyl-phenyl)-pyridin-2-ylmethyl]-amide], the IC50 turned out to be 79 nM.

On to `O=C(NCc1cc(-c2ccc(OC(F)(F)F)cc2)ccn1)[C@@H]1CC(F)(F)CN1S(=O)(=O)c1ccc(F)cc1` [Example 141, 4,4-Difluoro-1-(4-fluoro-benzenesulfonyl)-pyrrolidine-2S-carboxylic acid [4-(4-trifluoromethoxy-phenyl)-pyridin-2-ylmethyl]-amide], for which the IC50 came to 73 nM.

For the molecule `O=C(NCc1cc(-c2ccc(OC(F)(F)F)cc2)ccn1)[C@@H]1CC(F)(F)CN1S(=O)(=O)c1ccc(Cl)s1` [Example 142, 1-(5-Chloro-thiophene-2-sulfonyl)-4,4-difluoro-pyrrolidine-2S-carboxylic acid [4-(4-trifluoromethoxy-phenyl)-pyridin-2-ylmethyl]-amide], the IC50 came out at 78 nM.

In the case of `O=C(NCc1cc(-c2ccc(C(F)(F)F)cc2)ccn1)[C@@H]1C=CCN1S(=O)(=O)c1ccc(F)cc1` [Example 143, 1-(4-Fluoro-benzenesulfonyl)-2,5-dihydro-1H-pyrrole-2S-carboxylic acid [4-(4-trifluoromethyl-phenyl)-pyridin-2-ylmethyl]-amide], the IC50 is 10 nM.

Take `O=C(NCc1cc(-c2ccc(C(F)(F)F)cc2)ccn1)[C@@H]1C=CCN1S(=O)(=O)c1ccc(Cl)s1` [Example 144, 1-(5-Chloro-thiophene-2-sulfonyl)-2,5-dihydro-1H-pyrrole-2S-carboxylic acid [4-(4-trifluoromethyl-phenyl)-pyridin-2-ylmethyl]-amide]: the IC50 was found to be 22 nM.

For `O=C(NCc1cc(-c2ccc(OC(F)(F)F)cc2)ccn1)[C@@H]1C=CCN1S(=O)(=O)c1ccc(F)cc1` [Example 145, 1-(4-Fluoro-benzenesulfonyl)-2,5-dihydro-1H-pyrrole-2S-carboxylic acid [4-(4-trifluoromethoxy-phenyl)-pyridin-2-ylmethyl]-amide], the IC50 stood at 28 nM.

On to `O=C(NCc1cc(-c2ccc(OC(F)(F)F)cc2)ccn1)[C@@H]1C=CCN1S(=O)(=O)c1ccc(Cl)s1` [Example 146, 1-(5-Chloro-thiophene-2-sulfonyl)-2,5-dihydro-1H-pyrrole-2S-carboxylic acid [4-(4-trifluoromethoxy-phenyl)-pyridin-2-ylmethyl]-amide], for which the IC50 was determined as 52 nM.
